The text below walks through data of patent US9050345B2, “Pyrrolotriazines as potassium ion channel inhibitors” (BRISTOL-MYERS SQUIBB COMPANY, priority 2013, dated 2015).

The structures appear in SMILES notation.

T1 sequence (P22460 whole entry): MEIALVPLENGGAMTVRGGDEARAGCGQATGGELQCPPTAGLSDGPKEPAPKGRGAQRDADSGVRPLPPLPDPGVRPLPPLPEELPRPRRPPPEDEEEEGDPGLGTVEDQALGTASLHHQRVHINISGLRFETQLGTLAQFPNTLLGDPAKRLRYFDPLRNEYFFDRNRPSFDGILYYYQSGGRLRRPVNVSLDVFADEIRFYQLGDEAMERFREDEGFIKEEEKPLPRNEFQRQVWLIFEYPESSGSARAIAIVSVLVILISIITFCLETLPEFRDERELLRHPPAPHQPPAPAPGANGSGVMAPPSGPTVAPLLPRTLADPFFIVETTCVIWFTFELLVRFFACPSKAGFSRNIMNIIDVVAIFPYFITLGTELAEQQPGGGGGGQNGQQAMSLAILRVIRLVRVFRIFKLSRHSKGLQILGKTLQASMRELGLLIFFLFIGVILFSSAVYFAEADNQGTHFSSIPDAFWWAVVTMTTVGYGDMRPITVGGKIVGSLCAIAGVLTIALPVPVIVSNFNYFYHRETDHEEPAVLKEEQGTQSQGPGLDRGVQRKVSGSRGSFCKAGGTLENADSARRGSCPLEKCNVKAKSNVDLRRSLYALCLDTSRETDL

The first assay concerns the target T1, human KV 1.5 (IKur) (Homo sapiens, UniProt P22460).
T1 construct: expressed in transfected cells
Description: block of IKur current in patch clamped L-929 cells expressing human Kv1.5. It counts as cell-based. The conditions noted are these: 0.3 μM; patch clamped mammalian L-929 cells stably expressing human Kv1.5.
`NS(=O)(=O)c1cncc(-c2nc(NC3CCCc4cccnc43)c3c(-c4ccccc4)ccn3n2)c1` (centres unmarked) [Example 171, 5-(5-phenyl-4-((5,6,7,8-tetrahydroquinolin-8-yl)amino)pyrrolo[2,1-f] [1,2,4]triazin-2-yl)pyridine-3-sulfonamide]: the “KV1_5% Inh L929 @0.3 μM” value is listed as 97.64%.

Staying with this assay, now noted: L929, 0.3 μM; patch clamped mammalian L-929 cells stably expressing human Kv1.5; read-out: KV1_5% Inh L929 @0.3 μM.
For `NS(=O)(=O)c1cncc(-c2nc(NCc3ncccn3)c3c(-c4ccccc4)ccn3n2)c1` [Example 152, 5-(5-phenyl-4-((pyrimidin-2-ylmethyl)amino)pyrrolo[2,1-f][1,2,4]triazin-2-yl)pyridine-3-sulfonamide], the inhibition at 0.3 µM stood at 97.3%.

As for `NS(=O)(=O)c1cnc(O)c(-c2nc(NCc3ccccn3)c3c(-c4ccccc4)ccn3n2)c1` [Example 153, 6-hydroxy-5-(5-phenyl-4-((pyridin-2-ylmethyl)amino)pyrrolo [2,1-f][1,2,4]triazin-2-yl)pyridine-3-sulfonamide], the inhibition at 0.3 µM was 79.9%.

Turning to `NS(=O)(=O)c1cncc(-c2nc(NCc3cnccn3)c3c(-c4ccccc4)ccn3n2)n1` [Example 154, 6-(5-phenyl-4-((pyrazin-2-ylmethyl)amino)pyrrolo [2,1-f][1,2,4]triazin-2-yl)pyrazine-2-sulfonamide], the inhibition at 0.3 µM is 89.5%.

Turning to `NS(=O)(=O)c1cncc(-c2nc(NCCN3CCOCC3)c3c(-c4ccccc4)ccn3n2)c1` [Example 155, 5-(4-((2-morpholinoethyl)amino)-5-phenylpyrrolo [2,1-f][1,2,4]triazin-2-yl)pyridine-3-sulfonamide], the inhibition at 0.3 µM was found to be 30.2%.

Regarding `NS(=O)(=O)c1cncc(-c2nc(NCc3cnccn3)c3c(-c4ccccc4F)ccn3n2)c1` [Example 156, 5-(5-(2-fluorophenyl)-4-((pyrazin-2-ylmethyl)amino)pyrrolo [2,1-f][1,2,4]triazin-2-yl)pyridine-3-sulfonamide], the inhibition at 0.3 µM turned out to be 98.5%.

As for `Oc1cc(-c2nc(NCc3ccccn3)c3c(-c4ccccc4)ccn3n2)ccn1` [Example 157, 4-(5-phenyl-4-((pyridin-2-ylmethyl)amino)pyrrolo [2,1-f][1,2,4]triazin-2-yl)pyridin-2-ol], the inhibition at 0.3 µM came out at 94.5%.

On to `NS(=O)(=O)c1cncc(-c2nc(NCc3cccnc3)c3c(-c4ccccc4)ccn3n2)c1` [Example 158, 5-(5-phenyl-4-(pyridin-3-ylmethylamino)pyrrolo [1,2-f][1,2,4]triazin-2-yl)pyridine-3-sulfonamide], for which the inhibition at 0.3 µM turned out to be 92%.

Consider `NS(=O)(=O)c1cncc(-c2nc(NCc3ccncc3)c3c(-c4ccccc4)ccn3n2)c1` [Example 159], for which the inhibition at 0.3 µM turned out to be 90%.

For `NS(=O)(=O)c1cncc(-c2nc(NCc3cnccn3)c3c(-c4ccccc4)ccn3n2)c1` [Example 160, 5-(5-phenyl-4-(pyrazin-2-ylmethylamino)pyrrolo [1,2-f][1,2,4]triazin-2-yl)pyridine-3-sulfonamide], the inhibition at 0.3 µM was 94.7%.

Turning to `Nc1cncc(-c2nc(NCc3cnccn3)c3c(-c4ccccc4)ccn3n2)c1` [Example 161, 2-(5-aminopyridin-3-yl)-5-phenyl-N-(pyrazin-2-ylmethyl)pyrrolo[1,2-f] [1,2,4]triazin-4-amine], the inhibition at 0.3 µM is 97.9%.

With `Nc1cncc(-c2nc(NCc3ncccn3)c3c(-c4ccccc4)ccn3n2)c1` [Example 162, 2-(5-aminopyridin-3-yl)-5-phenyl-N-(pyrimidin-2-ylmethyl)pyrrolo[2,1-f] [1,2,4]triazin-4-amine], the inhibition at 0.3 µM came to 95.6%.

`NS(=O)(=O)c1cncc(-c2nc(NCc3nccs3)c3c(-c4ccccc4)ccn3n2)c1` [Example 163, 5-(5-phenyl-4-((thiazol-2-ylmethyl)amino)pyrrolo [2,1-f][1,2,4]triazin-2-yl)pyridine-3-sulfonamide]: the inhibition at 0.3 µM turned out to be 97.5%.

Consider `NS(=O)(=O)c1cncc(-c2nc(NCc3ccncn3)c3c(-c4ccccc4)ccn3n2)c1` [Example 165, 5-(5-phenyl-4-((pyrimidin-4-ylmethyl)amino)pyrrolo [2,1-f][1,2,4]triazin-2-yl)pyridine-3-sulfonamide], for which the inhibition at 0.3 µM was determined as 90.3%.

Take `NS(=O)(=O)c1cncc(-c2nc(NCc3ccccn3)c3c(-c4ccccc4F)ccn3n2)c1` [Example 166, 5-(5-(2-fluorophenyl)-4-((pyridin-2-ylmethyl)amino)pyrrolo [2,1-f][1,2,4]triazin-2-yl)pyridine-3-sulfonamide]: the inhibition at 0.3 µM worked out at 98%.

Consider `COC(=O)c1ccccc1CNc1nc(-c2cncc(S(N)(=O)=O)c2)nn2ccc(-c3ccccc3)c12` [Example 167, methyl 2-(((5-phenyl-2-(5-sulfamoylpyridin-3-yl)pyrrolo[2,1-f][1,2,4]triazin-4-yl)amino)methyl) benzoate], for which the inhibition at 0.3 µM was 89.8%.

Take `N#Cc1ccccc1CNc1nc(-c2cncc(S(N)(=O)=O)c2)nn2ccc(-c3ccccc3)c12` [Example 168, 5-(4-((2-cyanobenzyl)amino)-5-phenylpyrrolo [2,1-f][1,2,4]triazin-2-yl)pyridine-3-sulfonamide]: the inhibition at 0.3 µM turned out to be 86.8%.

Take `NC(=O)c1ccccc1CNc1nc(-c2cncc(S(N)(=O)=O)c2)nn2ccc(-c3ccccc3)c12` [Example 169, 2-(((5-phenyl-2-(5-sulfamoylpyridin-3-yl)pyrrolo[2,1-f][1,2,4]triazin-4-yl)amino)methyl) benzamide]: the inhibition at 0.3 µM worked out at 62.2%.

`NS(=O)(=O)c1cncc(-c2nc(NC3CCCc4cccnc43)c3c(-c4ccccc4)ccn3n2)c1` (centres unmarked) [Example 170, 5-(5-phenyl-4-((5,6,7,8-tetrahydroquinolin-8-yl)amino)pyrrolo[2,1-f] [1,2,4]triazin-2-yl)pyridine-3-sulfonamide]: the inhibition at 0.3 µM worked out at 96.4%.

With `NS(=O)(=O)c1cncc(-c2nc(NCc3nc4ccccc4s3)c3c(-c4ccccc4)ccn3n2)c1` [Example 172, 5-(4-((benzo[d]thiazol-2-ylmethyl)amino)-5-phenylpyrrolo [2,1-f][1,2,4]triazin-2-yl)pyridine-3-sulfonamide], the inhibition at 0.3 µM is 84.3%.

Consider `NS(=O)(=O)c1cncc(-c2nc(NCc3ncccc3F)c3c(-c4ccccc4F)ccn3n2)c1` [Example 173, 5-(5-(2-fluorophenyl)-4-(((3-fluoropyridin-2-yl)methyl)amino)pyrrolo [2,1-f][1,2,4]triazin-2-yl)pyridine-3-sulfonamide], for which the inhibition at 0.3 µM was 98.7%.

As to `Cc1csc(CNc2nc(-c3cncc(S(N)(=O)=O)c3)nn3ccc(-c4ccccc4)c23)n1` [Example 174, 5-(4-(((4-methylthiazol-2-yl)methyl)amino)-5-phenylpyrrolo [2,1-f][1,2,4]triazin-2-yl)pyridine-3-sulfonamide], the inhibition at 0.3 µM is 97.2%.

With `COc1ncc(-c2nc(NCc3nc(C)cs3)c3c(-c4ccccc4)ccn3n2)cc1S(N)(=O)=O` [Example 175, 2-methoxy-5-(4-(((4-methylthiazol-2-yl)methyl)amino)-5-phenylpyrrolo [2,1-f][1,2,4]triazin-2-yl)pyridine-3-sulfonamide], the inhibition at 0.3 µM stood at 97.1%.

In the case of `Cc1cc(CNc2nc(-c3cncc(S(N)(=O)=O)c3)nn3ccc(-c4ccccc4)c23)no1` [Example 176, 5-(4-(((5-methylisoxazol-3-yl)methyl)amino)-5-phenylpyrrolo [2,1-f][1,2,4]triazin-2-yl)pyridine-3-sulfonamide], the inhibition at 0.3 µM stood at 96%.

On to `CCOC(=O)CC(=O)Nc1cncc(-c2nc(NCc3cnccn3)c3c(-c4ccccc4)ccn3n2)c1` [Example 177, ethyl 3-oxo-3-((5-(5-phenyl-4-((pyrazin-2-ylmethyl)amino)pyrrolo [2,1-f][1,2,4]triazin-2-yl)pyridin-3-yl)amino) propanoate], for which the inhibition at 0.3 µM is 96.7%.

Turning to `Nc1ccccc1CNc1nc(-c2cncc(S(N)(=O)=O)c2)nn2ccc(-c3ccccc3)c12` [Example 178, 5-(4-((2-aminobenzyl)amino)-5-phenylpyrrolo [2,1-f][1,2,4]triazin-2-yl)pyridine-3-sulfonamide], the inhibition at 0.3 µM turned out to be 99.2%.

As to `CS(=O)(=O)Nc1ccccc1CNc1nc(-c2cncc(S(N)(=O)=O)c2)nn2ccc(-c3ccccc3)c12` [Example 179, 5-(4-((2-(methylsulfonamido)benzyl)amino)-5-phenylpyrrolo [2,1-f][1,2,4]triazin-2-yl)pyridine-3-sulfonamide], the inhibition at 0.3 µM was 90.1%.

As for `CC(=O)Nc1ccccc1CNc1nc(-c2cncc(S(N)(=O)=O)c2)nn2ccc(-c3ccccc3)c12` [Example 180, N-(2-(((5-phenyl-2-(5-sulfamoylpyridin-3-yl)pyrrolo[2,1-f][1,2,4]triazin-4-yl)amino)methyl)phenyl)acetamide], the inhibition at 0.3 µM came to 36.9%.

Consider `COC(=O)Nc1ccccc1CNc1nc(-c2cncc(S(N)(=O)=O)c2)nn2ccc(-c3ccccc3)c12` [Example 181, methyl (2-(((5-phenyl-2-(5-sulfamoylpyridin-3-yl)pyrrolo[2,1-f][1,2,4]triazin-4-yl)amino)methyl)phenyl)carbamate], for which the inhibition at 0.3 µM was 96%.

For the compound `NS(=O)(=O)c1cncc(-c2nc(NCc3ccccn3)c3c(-c4ccccc4)ccn3n2)c1C(F)F` [Example 182, 4-(difluoromethyl)-5-(5-phenyl-4-((pyridin-2-ylmethyl)amino)pyrrolo [2,1-f][1,2,4]triazin-2-yl)pyridine-3-sulfonamide], the inhibition at 0.3 µM turned out to be 93.7%.

Consider `NS(=O)(=O)c1ccc(-c2nc(NCc3ccccn3)c3c(-c4ccccc4)ccn3n2)cn1` [Example 183, 5-(5-phenyl-4-((pyridin-2-ylmethyl)amino)pyrrolo[2,1-f][1,2,4]triazin-2-yl)pyridine-2-sulfonamide], for which the inhibition at 0.3 µM is 97.8%.

Consider `N#Cc1ccccc1-c1ccn2nc(-c3cncc(S(N)(=O)=O)c3)nc(NCc3ccccn3)c12` [Example 184, 5-(5-(2-cyanophenyl)-4-((pyridin-2-ylmethyl)amino)pyrrolo [2,1-f][1,2,4]triazin-2-yl)pyridine-3-sulfonamide], for which the inhibition at 0.3 µM was found to be 80.9%.
